Measurements published in patent publication US20050192279A1, “Pyridazinones as antagonists of alpha4 integrins” (priority 2004, published 2005).
Read-outs that look alike come from different tables or passages of the source.

Assays:
[1] = molecular target: T1, α4β1 (Homo sapiens, UniProt P05556+P13612); assay: Ramos Cell Adhesion Assay (α4β1 Mediated Adhesion/VCAM-1); type: cell-based
T1 construct: Ramos Cell Adhesion Assay (α4β1 Mediated Adhesion/VCAM-1); endogenous in cells; host or cells: Ramos cells
T1 sequence (P05556 21-798, one chain of several): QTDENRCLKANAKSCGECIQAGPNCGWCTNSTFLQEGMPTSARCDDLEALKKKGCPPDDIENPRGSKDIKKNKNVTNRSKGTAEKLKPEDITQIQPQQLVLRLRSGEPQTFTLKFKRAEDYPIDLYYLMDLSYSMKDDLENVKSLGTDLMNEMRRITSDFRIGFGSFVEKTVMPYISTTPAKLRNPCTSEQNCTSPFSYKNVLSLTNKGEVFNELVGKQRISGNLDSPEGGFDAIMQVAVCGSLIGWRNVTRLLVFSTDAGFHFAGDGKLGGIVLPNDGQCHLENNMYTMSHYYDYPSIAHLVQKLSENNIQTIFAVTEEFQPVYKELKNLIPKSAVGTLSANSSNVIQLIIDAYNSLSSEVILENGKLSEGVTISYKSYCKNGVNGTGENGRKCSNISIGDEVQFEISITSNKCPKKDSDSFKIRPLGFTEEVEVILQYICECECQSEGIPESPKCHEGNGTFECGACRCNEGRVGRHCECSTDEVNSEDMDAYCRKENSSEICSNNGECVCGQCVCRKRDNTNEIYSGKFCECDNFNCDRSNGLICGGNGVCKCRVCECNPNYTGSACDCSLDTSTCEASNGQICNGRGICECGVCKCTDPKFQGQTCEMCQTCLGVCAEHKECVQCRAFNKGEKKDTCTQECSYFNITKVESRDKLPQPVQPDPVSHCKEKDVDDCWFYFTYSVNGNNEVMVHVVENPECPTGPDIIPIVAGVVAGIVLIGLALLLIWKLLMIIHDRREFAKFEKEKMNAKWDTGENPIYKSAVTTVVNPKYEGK
Summary of the method: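 Plates coated overnight at 4° C with recombinant hVCAM-1 at 4.0 μg/mL, pH 9.0, then blocked in PBS/1% BSA. Calcein AM-labeled Ramos cells added with compounds and left to adhere 1 h at room temperature; after washing, cells lysed in 1 M Tris pH 8.0/1% SDS.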

[2] = molecular target: T2, human α4β7 integrin (Homo sapiens, UniProt P13612+P26010); assay: α4β7-K562 Cell Adhesion Assay (α4β7 Mediated Adhesion/MAdCAM-1); type: cell-based
T2 construct: expressed in transfected cells; host or cells: K562 cells, stably transfected
T2 sequence (P13612 34-1032): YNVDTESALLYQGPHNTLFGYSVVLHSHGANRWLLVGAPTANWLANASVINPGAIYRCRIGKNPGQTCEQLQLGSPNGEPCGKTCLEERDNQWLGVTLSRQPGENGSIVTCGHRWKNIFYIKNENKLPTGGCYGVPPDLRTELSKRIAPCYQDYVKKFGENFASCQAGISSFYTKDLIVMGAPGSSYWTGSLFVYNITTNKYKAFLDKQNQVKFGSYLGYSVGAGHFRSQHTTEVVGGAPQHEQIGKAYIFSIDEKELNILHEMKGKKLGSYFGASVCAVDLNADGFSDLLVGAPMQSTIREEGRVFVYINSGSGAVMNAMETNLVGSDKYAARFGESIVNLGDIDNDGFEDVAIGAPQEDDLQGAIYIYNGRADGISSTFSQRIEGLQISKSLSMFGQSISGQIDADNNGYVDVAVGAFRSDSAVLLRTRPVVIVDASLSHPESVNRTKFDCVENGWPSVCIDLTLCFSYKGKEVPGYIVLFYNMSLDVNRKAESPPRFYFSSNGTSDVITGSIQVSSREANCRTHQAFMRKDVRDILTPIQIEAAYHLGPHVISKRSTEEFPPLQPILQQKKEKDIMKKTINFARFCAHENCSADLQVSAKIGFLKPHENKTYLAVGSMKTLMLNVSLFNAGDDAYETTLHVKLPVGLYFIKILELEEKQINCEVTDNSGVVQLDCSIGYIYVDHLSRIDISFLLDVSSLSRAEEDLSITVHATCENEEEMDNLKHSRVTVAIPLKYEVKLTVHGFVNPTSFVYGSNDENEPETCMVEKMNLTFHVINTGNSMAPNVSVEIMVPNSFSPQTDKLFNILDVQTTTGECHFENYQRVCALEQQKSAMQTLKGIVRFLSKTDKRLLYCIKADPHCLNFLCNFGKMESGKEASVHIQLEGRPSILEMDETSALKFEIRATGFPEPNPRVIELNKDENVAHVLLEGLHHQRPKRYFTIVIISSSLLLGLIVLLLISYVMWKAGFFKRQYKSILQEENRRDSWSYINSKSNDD
T2 sequence (P26010 20-798): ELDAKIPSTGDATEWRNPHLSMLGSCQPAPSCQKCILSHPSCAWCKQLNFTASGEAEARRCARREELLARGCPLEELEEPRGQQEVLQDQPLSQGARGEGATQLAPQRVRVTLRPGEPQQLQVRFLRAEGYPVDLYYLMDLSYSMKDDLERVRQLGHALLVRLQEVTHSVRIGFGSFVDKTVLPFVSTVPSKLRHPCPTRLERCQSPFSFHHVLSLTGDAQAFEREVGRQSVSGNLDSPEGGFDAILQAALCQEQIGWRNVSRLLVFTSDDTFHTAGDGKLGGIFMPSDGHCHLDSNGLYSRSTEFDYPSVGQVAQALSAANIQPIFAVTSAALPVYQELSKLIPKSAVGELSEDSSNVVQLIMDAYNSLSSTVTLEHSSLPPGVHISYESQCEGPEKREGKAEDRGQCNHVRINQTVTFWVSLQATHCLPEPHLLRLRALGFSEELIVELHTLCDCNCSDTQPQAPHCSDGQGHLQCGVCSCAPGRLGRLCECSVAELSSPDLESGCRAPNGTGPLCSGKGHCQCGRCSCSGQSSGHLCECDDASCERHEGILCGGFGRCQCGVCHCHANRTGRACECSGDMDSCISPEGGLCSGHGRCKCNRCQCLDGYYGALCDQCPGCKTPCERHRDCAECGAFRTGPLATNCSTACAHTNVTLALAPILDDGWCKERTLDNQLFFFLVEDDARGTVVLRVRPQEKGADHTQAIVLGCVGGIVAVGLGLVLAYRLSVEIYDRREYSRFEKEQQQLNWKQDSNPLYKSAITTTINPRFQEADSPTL
Summary of the method: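 Anti-FLAG plates coated 1 h at 4° C with FLAG-hMAdCAM-1 in PBS pH 7.4, 1% BSA, 1 mM Mn2+. Stably transfected K562 cells expressing human α4β7, labelled with CFDA-SE, adhered with compound 1 h at room temperature. After four washes, bound cells lysed in 0.1 M NaOH for fluorescence read-out.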

[3] = Ramos cell adhesion to hVCAM-1, read-out: α4β1 IC50
[4] = α4β7-K562 cell adhesion to hMAdCAM-1, read-out: α4β7 IC50

Compound: COc1cnn(C)c(=O)c1-c1ccc(C[C@H](NC(=O)C2(NC3CCCC3)CC2)C(=O)O)cc1 [Cpd 225]
- IC50 [1, 3]: 472 nM
- IC50 [2, 4]: 13 nM

Compound: COc1cnn(C)c(=O)c1-c1ccc(CC(NC(=O)C(NC(=O)Cc2ccsc2)C(C)C)C(=O)O)cc1 (stereo not shown) [Cpd 107, 3-[4-(5-Methoxy-2-methyl-3-oxo-2,3-dihydro-pyridazin-4-yl)-phenyl]-2-[3-methyl-2-(2-thiophen-3-yl-acetylamino)-butyrylamino]-propionic acid]
- IC50 [1, 3]: 306 nM
- IC50 [2, 4]: 71 nM

Compound: COc1cnn(C)c(=O)c1-c1ccc(C[C@H](NC(=O)C(C)(C)NC(N)=O)C(=O)O)cc1 [Cpd 229]
- IC50 [1, 3]: > 5000 nM
- IC50 [2, 4]: 89 nM

Compound: COc1cnn(C)c(=O)c1-c1ccc(C[C@H](NC(=O)[C@@H]2C3CCC(CC3)N2S(=O)(=O)c2ccccc2)C(=O)O)cc1 [Cpd 108]
- IC50 [1, 3]: 2.7 nM
- IC50 [2, 4]: 72 nM

Compound: COc1cnn(C)c(=O)c1-c1ccc(C[C@H](NC(=O)CN(C)C)C(=O)O)cc1 [Cpd 173]
- IC50 [1, 3]: > 5000 nM
- IC50 [2, 4]: 575 nM

Compound: CNC(C(=O)NC(Cc1ccc(-c2c(OC)cnn(C)c2=O)cc1)C(=O)O)C(C)C (single isomer, unassigned) [Cpd 123]
- IC50 [1, 3]: > 5000 nM
- IC50 [2, 4]: 118 nM

Compound: C=CCNc1cnn(CC(C)=O)c(=O)c1-c1ccc(C[C@H](NC(=O)c2c(Cl)cccc2Cl)C(=O)O)cc1 [Cpd 36]
- IC50 [1, 3]: 1310 nM
- IC50 [2, 4]: 9 nM

Compound: COc1cnn(C)c(=O)c1-c1ccc(CC(NC(=O)C2CCCN2C(=O)OC(C)(C)C)C(=O)O)cc1 (mixture of isomers) [Cpd 195]
- IC50 [1, 3]: > 5000 nM
- IC50 [2, 4]: 1280 nM

Compound: CSc1cnn(C(C)(C)C)c(=O)c1-c1ccc(C[C@H](NC(=O)c2c(Cl)cccc2Cl)C(=O)O)cc1 [Cpd 78]
- IC50 [1, 3]: 5610 nM
- IC50 [2, 4]: 36 nM

Compound: COc1cnn(C)c(=O)c1-c1ccc(C[C@H](NC(=O)C(NS(=O)(=O)c2ccccc2[N+](=O)[O-])C(C)C)C(=O)O)cc1 (mixture of isomers) [Cpd 77]
- IC50 [1, 3]: 240 nM
- IC50 [2, 4]: 36 nM

Compound: COc1cnn(C)c(=O)c1-c1ccc(C[C@H](NC(=O)C23CCC(CC2)CN3C)C(=O)O)cc1 [Cpd 135]
- IC50 [1, 3]: > 1000 nM
- IC50 [2, 4]: 165 nM

Compound: O=C(N[C@@H](Cc1ccc(-c2c(OC3CCC3)cnn(CCO)c2=O)cc1)C(=O)O)c1c(Cl)cccc1Cl [Cpd 53]
- IC50 [1, 3]: 269 nM
- IC50 [2, 4]: 17 nM

Compound: Cc1ccc(Oc2cnn(C(C)(C)C)c(=O)c2-c2ccc(C[C@H](NC(=O)c3c(Cl)cccc3Cl)C(=O)O)cc2)cc1 [Cpd 196, (S)-3-[4-(2-tert-Butyl-3-oxo-5-p-tolyloxy-2,3-dihydro-pyridazin-4-yl)-phenyl]-2-(2,6-dichloro-benzoylamino)-propionic acid]
- IC50 [1, 3]: > 5000 nM
- IC50 [2, 4]: 1290 nM

Compound: COc1cnn(C(C)(C)C)c(=O)c1-c1ccc(C[C@H](NC(=O)c2c(Cl)cccc2Cl)C(=O)O)cc1 [Cpd 85]
- IC50 [1, 3]: 794 nM
- IC50 [2, 4]: 42 nM

Compound: COc1cnn(C)c(=O)c1-c1ccc(C[C@H](NC(=O)[C@H](NC2CCCCC2)C(C)C)C(=O)O)cc1 [Cpd 28]
- IC50 [1, 3]: 2620 nM
- IC50 [2, 4]: 5 nM

Compound: COc1cnn(C)c(=O)c1-c1ccc(C[C@H](NC(=O)c2ccc(CO)cc2)C(=O)O)cc1 [Cpd 170]
- IC50 [1, 3]: 2810 nM
- IC50 [2, 4]: 514 nM

Compound: COc1cnn(C)c(=O)c1-c1ccc(CC(NC(=O)C(C(C)C)n2c(C)ccc2C)C(=O)O)cc1 (stereo not shown) [Cpd 213]
- IC50 [1, 3]: 2880 nM
- IC50 [2, 4]: 264 nM

Compound: Cn1ncc(NCCCl)c(-c2ccc(C[C@H](NC(=O)c3c(Cl)cccc3Cl)C(=O)O)cc2)c1=O [Cpd 162]
- IC50 ([1]; α4β1 IC50, Ramos cell adhesion to hVCAM-1): > 5000 nM
- IC50 ([2]; α4β7 IC50, α4β7-K562 cell adhesion to hMAdCAM-1): 408 nM

Compound: COc1cnn(C)c(=O)c1-c1ccc(CC(NC(=O)C(C(C)C)n2c(C)ccc2C)C(=O)O)cc1 (stereo not shown) [Cpd 214]
- IC50 [1, 3]: 1070 nM
- IC50 [2, 4]: 23 nM

Compound: COc1cnn(C)c(=O)c1-c1ccc(C[C@H]2C(=O)OCN2C(=O)c2c(Cl)cccc2Cl)cc1 [Cpd 114, (S)-4-{4-[3-(2,6-Dichloro-benzoyl)-5-oxo-oxazolidin-4-ylmethyl]-phenyl}-5-methoxy-2-methyl-2H-pyridazin-3-one]
- IC50 [1, 3]: > 5000 nM
- IC50 [2, 4]: 93 nM

Compound: Cn1ncc(-n2nccc2-c2cccs2)c(-c2ccc(C[C@H](NC(=O)c3c(Cl)cccc3Cl)C(=O)O)cc2)c1=O [Cpd 148]
- IC50 [1, 3]: > 5000 nM
- IC50 [2, 4]: 261 nM

Compound: CN1CCC(Oc2cnn(CCO)c(=O)c2-c2ccc(C[C@H](NC(=O)c3c(Cl)cccc3Cl)C(=O)O)cc2)CC1 [Cpd 23]
- IC50 [1, 3]: 248 nM
- IC50 [2, 4]: 3 nM

Compound: COc1cnn(-c2ccccc2)c(=O)c1-c1ccc(C[C@H](NC(=O)c2c(Cl)cccc2Cl)C(=O)O)cc1 [Cpd 56]
- IC50 [1, 3]: 3860 nM
- IC50 [2, 4]: 18 nM

Compound: COc1cnn(C)c(=O)c1-c1ccc(C[C@H](NC(=O)C23CCC(CC2)CN3)C(=O)O)cc1 [Cpd 99]
- IC50 [1, 3]: 264 nM
- IC50 [2, 4]: 60 nM

Compound: COc1cnn(C)c(=O)c1-c1ccc(CC(NC(=O)C2(C(=O)NC(Cc3ccc(-c4c(OC)cnn(C)c4=O)cc3)C(=O)O)CC2)C(=O)O)cc1 (stereo not shown) [Cpd 133]
- IC50 [1, 3]: 1280 nM
- IC50 [2, 4]: 10 nM

Compound: Cn1nc2c(c(-c3ccc(C[C@H](NC(=O)c4c(Cl)cccc4Cl)C(=O)O)cc3)c1=O)OCCO2 [Cpd 6, (S)-2-(2,6-Dichloro-benzoylamino)-3-[4-(2-methyl-3-oxo-2,3,6,7-tetrahydro-[1,4]dioxino[2,3-c]pyridazin-4-yl)-phenyl]-propionic acid]
- IC50 [1, 3]: 49 nM
- IC50 [2, 4]: 1 nM

Compound: COc1ccc2cc(C(=O)N[C@@H](Cc3ccc(-c4c(OC)cnn(C)c4=O)cc3)C(=O)O)c(=O)oc2c1 [Cpd 130]
- IC50 [1, 3]: > 1000 nM
- IC50 [2, 4]: 147 nM

Compound: COc1cnn(C)c(=O)c1-c1ccc(C[C@H](NC(=O)C2(NC3CCC4(CC3)OCCO4)CC2)C(=O)O)cc1 [Cpd 224]
- IC50 [1, 3]: > 5000 nM
- IC50 [2, 4]: 14 nM

Compound: COc1cnn(C)c(=O)c1-c1ccc(C[C@H](NC(=O)C2CCN(C(=O)OC(C)(C)C)CC2)C(=O)O)cc1 [Cpd 202]
- IC50 [1, 3]: > 5000 nM
- IC50 [2, 4]: 1480 nM

Compound: COc1cnn(C)c(=O)c1-c1ccc(C[C@H](NC(=O)c2c(Cl)cccc2Cl)C(=O)OCCCl)cc1 [Cpd 75]
- IC50 [1, 3]: > 5000 nM
- IC50 [2, 4]: 28 nM

Compound: COc1cnn(C)c(=O)c1-c1ccc(C[C@H](NC(=O)c2n[nH]c3ccccc23)C(=O)O)cc1 [Cpd 187]
- IC50 [1, 3]: > 5000 nM
- IC50 [2, 4]: 865 nM

Compound: Cn1ncc(CC(=O)O)c(-c2ccc(C[C@H](NC(=O)c3c(Cl)cccc3Cl)C(=O)O)cc2)c1=O [Cpd 152]
- IC50 [1, 3]: > 5000 nM
- IC50 [2, 4]: 282 nM

Compound: COc1cnn(C)c(=O)c1-c1ccc(C[C@H](NC(=O)[C@@H](C)N(C)C(=O)Cc2ccsc2)C(=O)O)cc1 [Cpd 50]
- IC50 [1, 3]: 229 nM
- IC50 [2, 4]: 14 nM

Compound: COc1cnn(C)c(=O)c1-c1ccc(C[C@H](NC(=O)CC(C)C)C(=O)O)cc1 [Cpd 124]
- IC50 [1, 3]: > 1000 nM
- IC50 [2, 4]: 119 nM

Compound: COc1cnn(C)c(=O)c1-c1ccc(C[C@H](NC(=O)c2cccn(C)c2=O)C(=O)O)cc1 [Cpd 193]
- IC50 [1, 3]: > 5000 nM
- IC50 [2, 4]: 1160 nM
